Converted amounts (≈) assume the structure as drawn. Like-named read-outs stand apart in the source and are kept apart here.
Tests used:
[1] = tested on: Staphylococcus aureus; assay: Broth microdilution antimicrobial assay, S. aureus; type: cell-based; details: for MBC: Staphylococcus aureus, read-out: MBC S. aureus
Method: (§1) Exactly 1.5 mg of sodium;10-oxido-7-oxophenoxazin-10-ium-3-olate was dissolved in 100 mL of distilled water, vortexed, filtered, sterilised, and stored at 4 °C for a maximum of 14 days before being applied as a growth indicator. 1000 μM stock solution of Schiff bases (1–9) was prepared in DMSO.
(§2) Fungi (Aspergillus niger, Candida albicans), Gram-positive bacteria (Staphylococcus aureus, Enterococcus faecalis), and Gram-negative bacteria (Salmonella typhi, Escherichia coli).
(§3) Colonies from a 24 h culture agar plate were collected with a loop and transferred to a tube containing lysogeny broth (LB). The various suspensions were incubated at 37 °C and the size adjusted to 1.5 × 10^6 CFU/mL [27].
(§4) The antimicrobial activity of Schiff bases (1–9), was evaluated using 96-well broth microdilution method as described by de Rapper et al. (2013) and Akhalwaya et al. (2018) with slight modifications. Columns 1–11 was filled 50 µL LB, followed by the addition of 50 µL of Schiff base to column 1. Thereafter, 50 µL of Schiff bases from column 1 was transferred by multichannel pipette to columns 2–10, resulting in 50 µL Schiff bases per well. Column 11 contained 100 µL of diluted standardised inoculum, while Column 12 contained 100 µL of LB as a control to monitor sterility. Then, 50 µL of the microorganism suspension was then added to columns 1–10 and the control column 11. The plates were incubated at 37 °C for 24 h, followed by the addition of 30 µL of growth indicator solution and further incubated for 2 h for the observation of colour change. On completion of incubation, the columns with blue indicator colour were reported as the MIC (µM) values. The columns with a concentration higher than the MIC value were plated on nutrient agar to determine the minimum bactericidal and fungicidal concentrations.

[2] = molecular target: α-amylase; assay: α-Amylase inhibitory activity; type: biochemical; details: Means ×10^2 ± SD from at least three experiments
Method: The α-amylase inhibitory activity of Schiff bases (1–9) was evaluated by the method reported by Xiao et al. with slight modifications. Substrate solution is prepared by dissolving 1.0 g of starch in 50 mL of 0.4 M NaOH and heated at 100 °C for 5 min. The substrate solution was adjusted to a neutral pH by the addition of 0.1 M HCl, cooled on crushed ice and made to 100 mL in a standard volumetric flask with distilled water. […] Using a microplate, 40 μL substrate and 20 μL Schiff base solution were mixed, then preincubated at 37 °C for 3 min. Thereafter, 20 μL of 50 μg/mL α-amylase solution was dispensed into each well, and further incubated for 15 min. The reaction was terminated by the addition of 80 μL HCl (0.1 M); followed by 200 μL of 1 mM iodine solution, and the absorbances measured at 650 nm. Inhibitory activity was calculated from Equation (5):(5) α − amylase inhibition (%) = (A2 − A1/A4 − A3)100 where A1 is the absorbance of Schiff base, starch, and α-amylase solution after incubation, A2 is the absorbance of Schiff base and starch solution after incubation, A3 is the absorbance of starch and amylase solution after incubation, and A4 is the absorbance of a starch solution after incubation. Thereafter, the IC50 value was determined from the plot of % inhibition versus concentration.

[3] = ABTS radical cation decolourisation assay; details: absorbance at 734 nm, 30 min; mean ± SD (n = 3)
Method: (§5) The antioxidant activities of Schiff bases (1–9) were determined by DPPH, ABTS^+, H2O2, ferric reducing power assays, and compared with 3,4,5-trihydroxybenzoic acid (10), 5-(1,2-dihydroxyethyl)-3,4-dihydroxyfuran-2(5H)-one (11), and 2-(3,4-dihydroxyphenyl)-3,5,7-trihydroxy-4H-chromen-4-one (12) (as controls).
A mixture of ABTS (960.2 mg) and potassium persulphate (165.6 mg) was dissolved in 250 mL of distilled water to generate the blue-green ABTS^+ solution. The ABTS solution was stored away in the dark at ambient temperature for 24 h to generate sufficient ABTS radical cation (ABTS^+), then the absorbance was adjusted to 0.9547 with distilled water. Precisely 40 µL solution of the compounds were added to 3 mL ABTS^+ solution and incubated at 298 K for 30 min in the dark. Changes in concentration of ABTS^+ were measured at 734 nm on a spectrophotometer. The degree of ABTS^+ decolourisation was a template for evaluating the percentage proton-donating potential (%PDP) of the test compounds [24]; estimated from Equation (3). The IC50 (μM) of the compounds were determined by linear regression analysis, and all analyses were carried out in triplicate. (3) % PDP = 100⌊(Abs. of ABTS ^+ − Abs. of test compound)/(Abs. of ABTS^+)⌋

[4] = DPPH radical scavenging activity; details: absorbance at 517 nm, 30 min; mean ± SD (n = 3)
Method: as §5
The scavenging activity of compounds (1–12) was evaluated by adding an ethanolic solution of DPPH (300 μL, 0.05 mM) and incubated for 30 min in the dark. After that, changes in the absorbance of the mixture were measured at 517 nm on a UV-Vis spectrophotometer. The percentage radical scavenging activities (%RSA) and half maximal inhibitory concentration (IC50) of the compounds were estimated from Equation (2) and by linear regression analysis, respectively. All studies were carried out in triplicate. (2) % RSA= 100⌊(Abs. of DPPH − Abs. of test compound)/(Abs. of DPPH)⌋

[5] = tested on: Escherichia coli; assay: Broth microdilution antimicrobial assay, E. coli; type: cell-based; details: for MBC: Escherichia coli, read-out: MBC E. coli
Method: as §1, §2, §3, §4

[6] = H2O2-scavenging activity; details: absorbance at 230 nm; mean ± SD (n = 3)
Method: as §5
According to the methods of Ruch et al., the H2O2 scavenging activity of compounds (1–12) was evaluated. To 100 µL aliquot of the test compounds was added 0.4 mL of 50 mM phosphate buffer followed by 0.6 mL of 2 mM H2O2 solution prepared in 50 mM phosphate buffer (pH 6.8). The absorbance of the mixture was measured at 230 nm, thereafter, the %H2O2 scavenging activity (Equation (4)) and IC50 (μM) of the compounds 1–12 was determined. All analyses were carried out in triplicate. (4) % H2O2 − scavenging activity = 100⌊(Abs. of H2O2 − Abs. of test compound)/(Abs. of H2O2)⌋

[7] = tested on: Aspergillus niger; assay: Broth microdilution antimicrobial assay, A. niger; type: cell-based
Method: as §1, §2, §3, §4

[8] = Radical scavenging over DPPH, ABTS and H2O2 assays; details: lower limit over the three radical assays; read-out: IC50 values for quenching the radicals (lowest over DPPH, ABTS, H2O2)
Method: as §5
The scavenging activity of compounds (1–12) was evaluated by adding an ethanolic solution of DPPH (300 μL, 0.05 mM) and incubated for 30 min in the dark. After that, changes in the absorbance of the mixture were measured at 517 nm on a UV-Vis spectrophotometer. […]
A mixture of ABTS (960.2 mg) and potassium persulphate (165.6 mg) was dissolved in 250 mL of distilled water to generate the blue-green ABTS^+ solution. The ABTS solution was stored away in the dark at ambient temperature for 24 h to generate sufficient ABTS radical cation (ABTS^+), then the absorbance was adjusted to 0.9547 with distilled water. […] Changes in concentration of ABTS^+ were measured at 734 nm on a spectrophotometer. […] The IC50 (μM) of the compounds were determined by linear regression analysis, and all analyses were carried out in triplicate. […]
According to the methods of Ruch et al., the H2O2 scavenging activity of compounds (1–12) was evaluated. […] The absorbance of the mixture was measured at 230 nm, thereafter, the %H2O2 scavenging activity (Equation (4)) and IC50 (μM) of the compounds 1–12 was determined. […]

[9] = tested on: Candida albicans; assay: Broth microdilution antimicrobial assay, C. albicans; type: cell-based
Method: as §1, §2, §3, §4

[10] = tested on: Salmonella typhi; assay: Broth microdilution antimicrobial assay, S. typhi; type: cell-based; details: Salmonella enterica, TYPHI, read-out: MBC S. typhi
Method: as §1, §2, §3, §4

[11] = tested on: Enterococcus faecalis; assay: Broth microdilution antimicrobial assay, E. faecalis; type: cell-based; details: for MBC: Enterococcus faecalis, read-out: MBC E. faecalis
Method: as §1, §2, §3, §4

[12] = molecular target: α-glucosidase; assay: α-Glucosidase inhibitory activity; type: biochemical; details: Means ×10^2 ± SD from at least three experiments
Method: The inhibitory activity of Schiff bases (1-9) against α-glucosidase was assessed by the method previously described by […] et al. […] Then, approximately 0.2 mL of Schiff base solution was mixed with 1.0 mL of 50 mM sodium phosphate buffer (pH 6.9) and 50 μL of α-glucosidase solution (2 U/mL). Thereafter, incubated at 37 °C for 10 min, followed by the addition of exactly 50 μL of 0.7 mM p-nitrophenyl-α-D-glucopyranoside solution in 50 mM sodium phosphate buffer (pH 6.9) and further incubated for 30 min at 37 °C. The reaction was terminated by the addition of 2.0 mL solution of 0.5 M Na2CO3. 0.3 mL aliquot of the above mixture was mixed with 4.7 mL of distilled water and the absorbance measured at 405 nm. […] (6) α - glucosidase inhibition (%) = (Ae - ASB/Ae)100 where Ae is the absorbance of the enzyme solution after incubation and ASB is the absorbance after incubation of Schiff bases solution. The assay was performed in triplicate.

[13] = tested on: Fungi (Aspergillus niger, Candida albicans); assay: Broth microdilution MIC, antifungal (fungus not specified); type: cell-based; details: read-out: MIC (antifungal)
Method: as §1, §2, §3
The antimicrobial activity of Schiff bases (1–9), was evaluated using 96-well broth microdilution method as described by de Rapper et al. (2013) and Akhalwaya et al. (2018) with slight modifications. Columns 1–11 was filled 50 µL LB, followed by the addition of 50 µL of Schiff base to column 1. Thereafter, 50 µL of Schiff bases from column 1 was transferred by multichannel pipette to columns 2–10, resulting in 50 µL Schiff bases per well. Column 11 contained 100 µL of diluted standardised inoculum, while Column 12 contained 100 µL of LB as a control to monitor sterility. Then, 50 µL of the microorganism suspension was then added to columns 1–10 and the control column 11. […]

[14] = relative to o-hydroxy derivative (8)

O=[N+]([O-])c1ccc(C=Nc2cc(O)[nH]n2)cc1 [Compound 1, 3-(((4-nitrophenyl)methylidene)amino)-1H-pyrazol-5-ol]
MBC [1]: 4.31 µM (≈ 1 µg/mL)
IC50 [2]: 420 ± 36 µM
IC50 [3]: 410 ± 6 µM
IC50 [4]: 290 ± 9 µM
MBC [5]: 4.31 µM (≈ 1 µg/mL)
IC50 [6]: 350 ± 5 µM
MFC ([7]; read-out: MFC A. niger): > 4.31 µM
IC50 [8]: ≥ 290 µM
melting point: 285 °C
MFC ([9]; read-out: MFC C. albicans): > 4.31 µM
MBC [10]: 2.15 µM (≈ 0.499 µg/mL)
MBC [11]: 4.31 µM (≈ 1 µg/mL)
IC50 [12]: 540 ± 44 µM

O=[N+]([O-])c1ccc(C=Nc2c(O)cc(S(=O)(=O)O)c3ccccc23)cc1 [Compound 7, 4-(4-nitrobenzylideneamino)-3-hydroxynaphthalene-1-sulphonic acid]
MIC [13]: 0.67 µM (≈ 0.249 µg/mL)
MBC [1]: > 2.69 µM
antibacterial activity (growth inhibition), S. aureus [1, 14]: very potent
IC50 [2]: 730 ± 16 µM
IC50 [3]: 50 ± 5 µM
IC50 [4]: 200 µM
MBC [5]: 1.34 µM (≈ 0.499 µg/mL)
antibacterial activity (growth inhibition), E. coli [5, 14]: very potent
IC50 [6]: 160 ± 90 µM
MFC ([7]; * = no fungicidal effect at the evaluated concentration, n = 3, read-out: MFC A. niger): 2.69 µM (≈ 1 µg/mL)
IC50 [8]: ≥ 50 µM
melting point: 200 °C
MFC ([9]; 24 h, * = no fungicidal effect at the evaluated concentration, n = 3, read-out: MFC C. albicans): 1.53 µM (≈ 0.57 µg/mL)
MBC [10]: > 2.69 µM
MBC [11]: > 2.69 µM
antibacterial activity (growth inhibition), E. faecalis [11, 14]: very potent
IC50 [12]: 961 ± 84 µM

Source: paper PMC6162693, “Investigation into the Thermal Response and Pharmacological Activity of Substituted Schiff Bases on α-Amylase and α-Glucosidase” (Antioxidants, 2018)
